From patent US20130281467A1, “NOVEL MICROBICIDES” (SYNGENTA PARTICIPATIONS AG, priority 2010, published 2013)

Tests used:
[1] = system: Phaeosphaeria nodorum (Septoria nodorum); experiment: Fungicidal activity against Phaeosphaeria nodorum (Septoria nodorum) / wheat / leaf disc preventative (glume blotch); type: in vivo; details: Parastagonospora nodorum, foliar, wheat leaf segments, inoculated 2 days after application, compared to untreated, read-out: disease control
Description: Fungicidal Activity Against Phaeosphaeria nodorum (Septoria nodorum)/Wheat/Leaf Disc Preventative (Glume Blotch) Wheat leaf segments cv. Kanzler were placed on agar in a multiwell plate (24-well format) and sprayed with the formulated test compound diluted in water. The leaf disks were inoculated with a spore suspension of the fungus 2 days after application. The inoculated test leaf disks were incubated at 20° C. and 75% rh under a light regime of 12 h light/12 h darkness in a climate cabinet and the activity of a compound was assessed as percent disease control compared to untreated when an appropriate level of disease damage appears in untreated check leaf disks (5-7 days after application).

Gaeumannomyces graminis = experiment: Fungicidal activity against Gaeumannomyces graminis / liquid culture (take-all of cereals); type: cell-based; details: 4-5 days after application, read-out: disease control (inhibition of growth, photometrically)
Description: Fungicidal Activity Against Gaeumannomyces graminis/Liquid Culture (Take-all of Cereals) Mycelial fragments of the fungus from cryogenic storage were directly mixed into nutrient broth (PDB potato dextrose broth). After placing a (DMSO) solution of test compound into a microtiter plate (96-well format), the nutrient broth containing the fungal spores iss added. The test plates were incubated at 24° C. and the inhibition of growth was determined photometrically 4-5 days after application.

Pyrenophora teres = experiment: Fungicidal activity against Pyrenophora teres / barley / leaf disc preventative (net blotch); type: in vivo; details: foliar, barley leaf segments, inoculated 2 days after application, compared to untreated, read-out: disease control
Description: Fungicidal Activity Against Pyrenophora teres/Barley/Leaf Disc Preventative (Net Blotch) Barley leaf segments cv. Hasso were placed on agar in a multiwell plate (24-well format) and sprayed with the formulated test compound diluted in water. The leaf segments were inoculated with a spore suspension of the fungus 2 days after application. The inoculated leaf segments were incubated at 20° C. and 65% rh under a light regime of 12 h light/12 h darkness in a climate cabinet and the activity of a compound was assessed as disease control compared to untreated when an appropriate level of disease damage appears in untreated check leaf segments (5-7 days after application).

[2] = system: Mycosphaerella graminicola (Septoria tritici); experiment: Fungicidal activity against Mycosphaerella graminicola (Septoria tritici) / liquid culture (Septoria blotch); type: cell-based; details: Zymoseptoria tritici, 4-5 days after application, read-out: disease control (inhibition of growth, photometrically)
Description: Fungicidal Activity Against Mycosphaerella graminicola (Septoria tritici)/Liquid Culture (Septoria Blotch) Conidia of the fungus from cryogenic storage were directly mixed into nutrient broth (PDB potato dextrose broth). After placing a (DMSO) solution of test compound into a microtiter plate (96-well format), the nutrient broth containing the fungal spores was added. The test plates were incubated at 24° C. and the inhibition of growth was determined photometrically 4-5 days after application.

[3] = system: Blumeria graminis f. Sp. tritici (Erysiphe graminis f. sp. tritici); experiment: Fungicidal activity against Blumeria graminis f. sp. tritici / wheat / leaf disc preventative (powdery mildew on wheat); type: in vivo; details: foliar, wheat leaf segments, inoculated 1 day after application, compared to untreated, read-out: disease control
Description: Fungicidal Activity Against Blumeria graminis f. Sp. tritici (Erysiphe graminis f. sp. tritici)/Wheat/Leaf Disc Preventative (Powdery Mildew on Wheat)
Wheat leaf segments cv. Kanzler were placed on agar in a multiwell plate (24-well format) and sprayed with the formulated test compound diluted in water. The leaf disks were inoculated by shaking powdery mildew infected plants above the test plates 1 day after application. The inoculated leaf disks were incubated at 20° C. and 60% rh under a light regime of 24 h darkness followed by 12 h light/12 h darkness in a climate chamber and the activity of a compound was assessed as percent disease control compared to untreated when an appropriate level of disease damage appears on untreated check leaf segments (6-8 days after application).

[4] = system: Glomerella lagenarium (Colletotrichum lagenarium); experiment: Fungicidal activity against Glomerella lagenarium (Colletotrichum lagenarium) / liquid culture (anthracnose); type: cell-based; details: Colletotrichum orbiculare, 3-4 days after application, read-out: disease control (inhibition of growth, photometrically)
Description: Fungicidal Activity Against Glomerella lagenarium (Colletotrichum lagenarium)/Liquid Culture (Anthracnose) Conidia of the fungus from cryogenic storage were directly mixed into nutrient broth (PDB potato dextrose broth). After placing a (DMSO) solution of test compound into a microtiter plate (96-well format), the nutrient broth containing the fungal spores was added. The test plates were incubated at 24° C. and the inhibition of growth was measured photometrically 3-4 days after application.

[5] = system: Mycosphaerella arachidis (Cercospora arachidicola); experiment: Fungicidal activity against Mycosphaerella arachidis (Cercospora arachidicola) / liquid culture (early leaf spot); type: cell-based; details: 4-5 days after application, read-out: disease control (inhibition of growth, photometrically)
Description: Fungicidal Activity Against Mycosphaerella arachidis (Cercospora arachidicola)/Liquid Culture (Early Leaf Spot) Conidia of the fungus from cryogenic storage were directly mixed into nutrient broth (PDB potato dextrose broth). After placing a (DMSO) solution of test compound into a microtiter plate (96-well format), the nutrient broth containing the fungal spores was added. The test plates were incubated at 24° C. and the inhibition of growth was determined photometrically 4-5 days after application.

[6] = system: Botryotinia fuckeliana (Botrytis cinerea); experiment: Fungicidal activity against Botryotinia fuckeliana (Botrytis cinerea) / liquid culture (gray mould); type: cell-based; details: 3-4 days after application, read-out: disease control (inhibition of growth, photometrically)
Description: Fungicidal Activity Against Botryotinia fuckeliana (Botrytis cinerea)/Liquid Culture (Gray Mould) Conidia of the fungus from cryogenic storage were directly mixed into nutrient broth (Vogels broth). After placing a (DMSO) solution of test compound into a microtiter plate (96-well format), the nutrient broth containing the fungal spores was added. The test plates were incubated at 24° C. and the inhibition of growth was determined photometrically 3-4 days after application.

[7] = system: Thanatephorus cucumeris (Rhizoctonia solani); experiment: Fungicidal activity against Thanatephorus cucumeris (Rhizoctonia solani) / liquid culture (foot rot, damping-off); type: cell-based; details: 3-4 days after application, read-out: disease control (inhibition of growth, photometrically)
Description: Fungicidal Activity Against Thanatephorus cucumeris (Rhizoctonia solani)/Liquid Culture (Foot Rot, Damping-Off) Mycelia fragments of a newly grown liquid culture of the fungus were directly mixed into nutrient broth (PDB potato dextrose broth). After placing a (DMSO) solution of the test compounds into a microtiter plate (96-well format), the nutrient broth containing the fungal material was added. The test plates were incubated at 24° C. and the inhibition of growth was determined photometrically 3-4 days after application.

[8] = system: Puccinia recondita f. sp. tritici; experiment: Fungicidal activity against Puccinia recondita f. sp. tritici / wheat / leaf disc preventative (brown rust); type: in vivo; details: foliar, wheat leaf segments, inoculated 1 day after application, compared to untreated, read-out: disease control
Description: Fungicidal Activity Against Puccinia recondita f. sp. tritici/Wheat/Leaf Disc Preventative (Brown Rust) Wheat leaf segments cv. Kanzler were placed on agar in multiwell plates (24-well format) and sprayed with the formulated test compound diluted in water. The leaf disks were inoculated with a spore suspension of the fungus 1 day after application. The inoculated leaf segments were incubated at 19° C. and 75% rh under a light regime of 12 h light/12 h darkness in a climate cabinet and the activity of a compound was assessed as percent disease control compared to untreated when an appropriate level of disease damage appears in untreated check leaf segments (7-9 days after application).

[9] = system: Monographella nivalis (Microdochium nivale); experiment: Fungicidal activity against Monographella nivalis (Microdochium nivale) / liquid culture (foot rot cereals); type: cell-based; details: 4-5 days after application, read-out: disease control (inhibition of growth, photometrically)
Description: Fungicidal Activity Against Monographella nivalis (Microdochium nivale)/Liquid Culture (Foot Rot Cereals) Conidia of the fungus from cryogenic storage were directly mixed into nutrient broth (PDB potato dextrose broth). After placing a (DMSO) solution of test compound into a microtiter plate (96-well format), the nutrient broth containing the fungal spores was added. The test plates were incubated at 24° C. and the inhibition of growth was determined photometrically 4-5 days after application.

c1ccc(Cc2cccc(-c3ncc4c(n3)CCOC4)n2)cc1 [Compound 2]
244 to 245 °C: melting point
≥ 80%: pest or weed control at 200 ppm [1] | inhibition at 200 ppm (Gaeumannomyces graminis) | pest or weed control at 200 ppm (Pyrenophora teres) | inhibition at 200 ppm [2] | pest or weed control at 200 ppm [3] | inhibition at 200 ppm [4] | inhibition at 200 ppm [5] | inhibition at 200 ppm [6] | inhibition at 200 ppm [7] | pest or weed control at 200 ppm [8]

CO/N=C1\CCCc2nc(-c3cccc(Cc4ccccc4)n3)ncc21 [Compound 9]
≥ 80%: pest or weed control at 200 ppm [1] | inhibition at 200 ppm (Gaeumannomyces graminis) | pest or weed control at 200 ppm (Pyrenophora teres) | inhibition at 200 ppm [9] | pest or weed control at 200 ppm [3] | inhibition at 200 ppm [4] | inhibition at 200 ppm [5] | inhibition at 200 ppm [6] | pest or weed control at 200 ppm [8]
213 to 215 °C: melting point

CC1(C)CCc2cnc(-c3cccc(Cc4ccccc4Cl)n3)nc2C1 [Compound 13]
≥ 80%: pest or weed control at 200 ppm [1] | inhibition at 200 ppm [2] | inhibition at 200 ppm [9] | inhibition at 200 ppm [4] | inhibition at 200 ppm [5] | inhibition at 200 ppm [6] | inhibition at 200 ppm [7]
272 to 273 °C: melting point

COc1ccccc1Cc1cccc(-c2ncc3c(n2)CC(C)(C)CC3)n1 [Compound 14, 2-[6-(2-methoxybenzyl)-pyridin-2-yl]-7,7-dimethyl-5,6,7,8-tetrahydroquinazoline]
≥ 80%: inhibition at 200 ppm (Gaeumannomyces graminis) | pest or weed control at 200 ppm (Pyrenophora teres) | inhibition at 200 ppm [2] | inhibition at 200 ppm [9] | inhibition at 200 ppm [4] | inhibition at 200 ppm [5] | inhibition at 200 ppm [6] | inhibition at 200 ppm [7]
251 to 252 °C: melting point

Cc1ccccc1Cc1cccc(-c2ncc3c(n2)CC(C)(C)CC3)n1 [Compound 15]
≥ 80%: pest or weed control at 200 ppm [1] | pest or weed control at 200 ppm (Pyrenophora teres) | inhibition at 200 ppm [2] | inhibition at 200 ppm [9] | inhibition at 200 ppm [4] | inhibition at 200 ppm [5] | inhibition at 200 ppm [6] | inhibition at 200 ppm [7]
259 to 260 °C: melting point

CC1(C)CCc2cnc(-c3cccc(Cc4cccc(Cl)c4)n3)nc2C1 [Compound 16]
219 to 220 °C: melting point
≥ 80%: pest or weed control at 200 ppm [1] | pest or weed control at 200 ppm (Pyrenophora teres) | inhibition at 200 ppm [2] | inhibition at 200 ppm [9] | inhibition at 200 ppm [4] | inhibition at 200 ppm [5] | inhibition at 200 ppm [6]

CC1(C)CCc2cnc(-c3cccc(Cc4cccc(C#N)c4)n3)nc2C1 [Compound 17]
222 to 223 °C: melting point
≥ 80%: pest or weed control at 200 ppm [1] | inhibition at 200 ppm (Gaeumannomyces graminis) | pest or weed control at 200 ppm (Pyrenophora teres) | inhibition at 200 ppm [2] | inhibition at 200 ppm [9] | inhibition at 200 ppm [4] | inhibition at 200 ppm [5] | inhibition at 200 ppm [6] | inhibition at 200 ppm [7]

O=C1CCCc2nc(-c3cccc(Cc4ccccc4)n3)ncc21 [Compound 20]
≥ 80%: inhibition at 200 ppm (Gaeumannomyces graminis) | inhibition at 200 ppm [2] | inhibition at 200 ppm [4] | inhibition at 200 ppm [5] | inhibition at 200 ppm [6]
69 to 75 °C: melting point

COc1ccc(OC)c(Cc2cccc(-c3ncc4c(n3)CCOC4)n2)c1 [Compound 22]
286 to 288 °C: melting point
≥ 80%: pest or weed control at 200 ppm [1] | inhibition at 200 ppm (Gaeumannomyces graminis) | pest or weed control at 200 ppm (Pyrenophora teres) | inhibition at 200 ppm [2] | pest or weed control at 200 ppm [3] | inhibition at 200 ppm [4] | inhibition at 200 ppm [6] | pest or weed control at 200 ppm [8]

CC(c1ccccc1)c1cccc(-c2ncc3c(n2)CC(C)(C)CC3)n1 (stereo not drawn) [Compound 45]
≥ 80%: pest or weed control at 200 ppm [1] | inhibition at 200 ppm (Gaeumannomyces graminis) | pest or weed control at 200 ppm (Pyrenophora teres) | inhibition at 200 ppm [2] | inhibition at 200 ppm [9] | inhibition at 200 ppm [4] | inhibition at 200 ppm [5] | inhibition at 200 ppm [6] | inhibition at 200 ppm [7]
136 to 138 °C: melting point
